# Results published in patent publication US4413007A, “Pesticidal symmetrical N-substituted bis-carbamoyloximino disulfide compounds” (priority 1978, dated 1983).
# Tests used:
# [1] = system: two-spotted mite (Tetranychus urticae Koch); experiment: Mite Foliage Spray Test; type: in vivo; set-up: key: A: excellent control; B: partial control; C: no control; settings: 500 ppm, six days
# Method: (§1) Suspensions of the test compounds were prepared by dissolving one gram of compound in 50 milliliters of acetone in which had been dissolved 0.1 gram (10 percent of the weight of compound) of an alkylphenoxy polyethoxyethanol surfactant, as an emulsifying or dispersing agent. The resulting solution was mixed into 150 milliliters of water to give roughly 200 milliliters of a suspension containing the compound in finely divided form. The thus-prepared stock suspension contained 0.5 percent by weight of compound. The test concentrations in parts per million by weight employed in the tests described hereinbelow were obtained by appropriate dilutions of the stock suspension with water. The test procedures were as follows:
# Adults and nymphal stages of the two-spotted mite (Tetranychus urticae Koch), reared on Tendergreen bean plants at 80±5 percent relative humidity, were the test organisms. Infested leaves from a stock culture were placed on the primary leaves of two bean plants six to eight inches in height, growing in a two-and-a-half inch clay pot. 150-200 Mites, a sufficient number for testing, transferred from the excised leaves to the fresh plants in a period of twenty four hours. Following the twenty four hour transfer period, the excised leaves were removed from the infested plants. The test compounds were formulated by diluting the stock suspension with water to give a suspension containing 500 parts of test compound per million parts of final formulation. The potted plants (one pot per compound) were placed on a revolving turntable and sprayed with 100-110 milliliters of test compound formulation by use of a DeVilbiss spray gun set at 40 psig. air pressure. This application, which lasted 25 seconds, was sufficient to wet the plants to run-off. As a control, 100-110 milliliters of a water solution containing acetone and emulsifier in the same concentrations as the test compound formulation, but containing no test compound, were also sprayed on infested plants. The sprayed plants were held at 80±5 percent relative humidity for six days, after which a mortality count of motile forms was made. Microscopic examination for motile forms was made on the leaves of the test plants. Any individual which was capable of locomotion upon prodding was considered living.
# In these tests the pesticidal activity of the compounds against aphid, mite, Southern Armyworm, Bean Beetle and house fly was rated as follows: […]
# [2] = Peroral toxicity to mammals (rat); settings: in vivo, po, 50 percent mortality, read-out: A.O. Rat (LD50)
# Method: Certain of these compositions were also evaluated to determine their peroral toxicity to mammals. The animal selected for this experiment was the rat. The test results obtained are expressed in terms of the number of milligrams of compositions per kilogram of weight of the animal required to achieve a mortality rate of 50 percent (LD50).
# [3] = system: root-knot nematode (Meloidogyne incognita var. acrita); experiment: Nematode Test; type: in vivo; set-up: key: 1: severe galling; equal to untreated control; 2: moderate galling; 3: light galling; 4: very light galling; 5: no galling; settings: 10 ml of 500 ppm formulation per jar (approx. 180 cc soil), cucumber indicator crop, approx. three weeks
# Method: as §1
# Infective migratory larvae of the root-knot nematode, (Meloidogyne incognita var. acrita) were reared in the greenhouse on roots of Rutgers variety tomato plant. Infected tomato plants were removed from the culture and the roots were chopped very finely. A small amount of inoculum from the roots was added to pint Mason jars containing approximately 180 cc of soil. The jars containing the inoculum and soil were capped and incubated for one week at room temperature. During this period eggs of the nematode hatched and the larvae forms migrated into the soil.
# The test compounds were formulated by diluting the stock suspension with water to give a suspension containing 500 parts of test compound per million parts of final formulation. 10 milliliters of the test formulation was added to each of two jars for each dosage treated. As a control 10 milliliters of a water-acetone-emulsifier solution containing no test compound was also added to jars containing nematode larvae. The jars were capped and the contents thoroughly mixed on a kale mill for five minutes. The jars remained capped at room temperature for a period of 48 hours and the contents were then transferred to 3 inch pots. Subsequently, the pots were seeded to cucumber as an indicator crop and placed in the green house where they were cared for in the normal fashion for growing potted cucumber for approximately three weeks. These cucumber plants were then removed from the pots, the soil washed from the roots and the amount of galling visually rated.
# The nematocidal toxicity has the following ratings;
SMILES,2-Spotted Mite control rating [1],LD50 [2],Root-Knot Nematode galling rating [3]
"CN(SSN(C)C(=O)ON=C1CSCCS1)C(=O)ON=C1CSCCS1 [N,N'-Bis-[1,4-Dithiane-2-O-(N-methylcarbamoyl)oximino]disulfide]",A,160 mg/kg,1
"CC(=NOC(=O)N(C)SSN(C)C(=O)ON=C(C)SCCC#N)SCCC#N [N,N'-Bis-[1-(2-Cyanoethylthio)acetaldehyde O-(N-methylcarbamoyl)oxime]disulfide]",A,80 mg/kg,4
"CSC(C)=NOC(=O)N(C)SSN(C)C(=O)ON=C(C)SC [N,N'-Bis-[1-Methylthioacetaldehyde O-(N-methylcarbamoyl)oxime]disulfide]",C,190 mg/kg,1
